According to patent publication US9539307B2, “Compositions and methods for treating amyotrophic lateral sclerosis” (THE RESEARCH INSTITUTE AT NATIONWIDE CHILDREN'S HOSPITAL, priority 2012, dated 2017):

Legend:
PRF1 = assay: Western blot of PRF1 knockdown in human astrocytes; type: cell-based
Excerpt: (§1) To knockdown PRF1 and GZMB levels in astrocytes, sequences from the RNAi Consortium lentiviral shRNA library were screened and relevant plasmids purchased from Open Biosystems. Clones TRCN0000077206 ([…] (SEQ ID NO: 19)) and TRCN0000032742 ([…] (SEQ ID NO: 20)) were used to target PRF1 and GZMB in mouse astrocytes, respectively. Clones TRCN0000007942 ([…] (SEQ ID NO: 21)) and TRCN0000006448 ([…] (SEQ ID NO: 22)) were used to knockdown PRF1 and GZMB in human astrocytes, respectively. Scrambled shRNA were used as controls for PRF1 ([…] (SEQ ID NO: 23)) and for GZMB ([…] (SEQ ID NO: 24)). […] Prior to addition to astrocytes, viral titer was obtained using Quick-titer lentivirus quantification kit follow manufacture's directions (CellBiolabs Inc, San Diego, Calif., USA).
(§2) Based on the levels of knockdown efficiency evaluated by western blot analysis, clones TRCN0000077206 ([…] (SEQ ID NO: 45)) and TRCN0000007942 ([…] (SEQ ID NO: 46)) were chosen to target PRF1 in mouse and human astrocytes, respectively. […]
(§3) Crude protein cell lysates were obtained using the Tissue Protein Extracting Reagent (Pierce, Rockford, Ill.) following manufacture recommendations. […] Bound primary antibody was detected by horseradish peroxidase conjugated secondary antibody (Jackson ImmunoResearch, West Grove, Pa.) followed by chemiluminescence using ECLTM Western Blotting Detection Reagents (GE Healthcare).

GZMB = assay: Western blot of GZMB knockdown in human astrocytes; type: cell-based
Excerpt: as §1, §2, §3

ACCTGAATCATGGCCACCTAA (chemistry not given here) [SEQ ID NO: 1]
PRF1 expression (PRF1): efficiently ablate

CATTGTCTCCTATGGACGAAA (expressed or natural sequence) [SEQ ID NO: 2]
GZMB expression (GZMB): efficiently ablate
